Source: patent publication EP0726263A2, “Herbicidal (1,3,4)oxadiazoles and thiadiazoles” (American Cyanamid Company, priority 1995, dated 1996)

Columns and labels:
Format in all cases: in vivo
Abutilon theophrasti [1] = assay: Herbicidal activity, preemergence test; settings: pre; sprayed onto soil, 800 g of active material per hectare; evaluated 3 weeks after treatment
Summary of the method: (§1)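 Spray dose 800 g a.i./ha in 900 L/ha; acetone stock with 0.4% Triton X-155, water-diluted. Pre: sown loam soil, read at 3 wk. Post: seedling plants, read at 2 wk. Visual 0-9 rating vs untreated.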

Alopecurus myosuroides [2] = assay: Herbicidal activity, preemergence test; settings: pre; sprayed onto soil, 800 g of active material per hectare; evaluated 3 weeks after treatment
Summary of the method: as §1

Amaranthus retroflexus [3] = assay: Herbicidal activity, preemergence test; settings: pre; sprayed onto soil, 800 g of active material per hectare; evaluated 3 weeks after treatment
Summary of the method: as §1

Ambrosia artemisifolia [4] = assay: Herbicidal activity, preemergence test; settings: pre; sprayed onto soil, 800 g of active material per hectare; evaluated 3 weeks after treatment
Summary of the method: as §1

Echinochloa crus-galli [5] = assay: Herbicidal activity, preemergence test; settings: pre; sprayed onto soil, 800 g of active material per hectare; evaluated 3 weeks after treatment
Summary of the method: as §1

Galium aparine [6] = assay: Herbicidal activity, preemergence test; settings: pre; sprayed onto soil, 800 g of active material per hectare; evaluated 3 weeks after treatment
Summary of the method: as §1

Glycine max [7] = assay: Herbicidal activity, preemergence test; settings: pre; sprayed onto soil, 800 g of active material per hectare; evaluated 3 weeks after treatment
Summary of the method: as §1

Gossypium hirsutum [8] = assay: Herbicidal activity, preemergence test; settings: pre; sprayed onto soil, 800 g of active material per hectare; evaluated 3 weeks after treatment
Summary of the method: as §1

Helianthus annuus [9] = assay: Herbicidal activity, preemergence test; settings: pre; sprayed onto soil, 800 g of active material per hectare; evaluated 3 weeks after treatment
Summary of the method: as §1

Hordeum vulgare [10] = assay: Herbicidal activity, preemergence test; settings: pre; sprayed onto soil, 800 g of active material per hectare; evaluated 3 weeks after treatment
Summary of the method: as §1

Ipomoea hederacea [11] = assay: Herbicidal activity, preemergence test; settings: pre; sprayed onto soil, 800 g of active material per hectare; evaluated 3 weeks after treatment
Summary of the method: as §1

Lamium purpureum [12] = assay: Herbicidal activity, preemergence test; settings: pre; sprayed onto soil, 800 g of active material per hectare; evaluated 3 weeks after treatment
Summary of the method: as §1

Setaria viridis [13] = assay: Herbicidal activity, preemergence test; settings: pre; sprayed onto soil, 800 g of active material per hectare; evaluated 3 weeks after treatment
Summary of the method: as §1

Stellaria media [14] = assay: Herbicidal activity, preemergence test; settings: pre; sprayed onto soil, 800 g of active material per hectare; evaluated 3 weeks after treatment
Summary of the method: as §1

Triticum aestivum [15] = assay: Herbicidal activity, preemergence test; settings: pre; sprayed onto soil, 800 g of active material per hectare; evaluated 3 weeks after treatment
Summary of the method: as §1

Veronica persica [16] = assay: Herbicidal activity, preemergence test; settings: pre; sprayed onto soil, 800 g of active material per hectare; evaluated 3 weeks after treatment
Summary of the method: as §1

Viola arvensis [17] = assay: Herbicidal activity, preemergence test; settings: pre; sprayed onto soil, 800 g of active material per hectare; evaluated 3 weeks after treatment
Summary of the method: as §1

Zea mays [18] = assay: Herbicidal activity, preemergence test; settings: pre; sprayed onto soil, 800 g of active material per hectare; evaluated 3 weeks after treatment
Summary of the method: as §1

Abutilon theophrasti [19] = assay: Herbicidal activity, postemergence test; settings: post; sprayed onto seedling plants, 800 g of active material per hectare; evaluated 2 weeks after treatment
Summary of the method: as §1

Alopecurus myosuroides [20] = assay: Herbicidal activity, postemergence test; settings: post; sprayed onto seedling plants, 800 g of active material per hectare; evaluated 2 weeks after treatment
Summary of the method: as §1

Amaranthus retroflexus [21] = assay: Herbicidal activity, postemergence test; settings: post; sprayed onto seedling plants, 800 g of active material per hectare; evaluated 2 weeks after treatment
Summary of the method: as §1

Ambrosia artemisifolia [22] = assay: Herbicidal activity, postemergence test; settings: post; sprayed onto seedling plants, 800 g of active material per hectare; evaluated 2 weeks after treatment
Summary of the method: as §1

Echinochloa crus-galli [23] = assay: Herbicidal activity, postemergence test; settings: post; sprayed onto seedling plants, 800 g of active material per hectare; evaluated 2 weeks after treatment
Summary of the method: as §1

Galium aparine [24] = assay: Herbicidal activity, postemergence test; settings: post; sprayed onto seedling plants, 800 g of active material per hectare; evaluated 2 weeks after treatment
Summary of the method: as §1

Glycine max [25] = assay: Herbicidal activity, postemergence test; settings: post; sprayed onto seedling plants, 800 g of active material per hectare; evaluated 2 weeks after treatment
Summary of the method: as §1

Gossypium hirsutum [26] = assay: Herbicidal activity, postemergence test; settings: post; sprayed onto seedling plants, 800 g of active material per hectare; evaluated 2 weeks after treatment
Summary of the method: as §1

Helianthus annuus [27] = assay: Herbicidal activity, postemergence test; settings: post; sprayed onto seedling plants, 800 g of active material per hectare; evaluated 2 weeks after treatment
Summary of the method: as §1

Hordeum vulgare [28] = assay: Herbicidal activity, postemergence test; settings: post; sprayed onto seedling plants, 800 g of active material per hectare; evaluated 2 weeks after treatment
Summary of the method: as §1

Ipomoea hederacea [29] = assay: Herbicidal activity, postemergence test; settings: post; sprayed onto seedling plants, 800 g of active material per hectare; evaluated 2 weeks after treatment
Summary of the method: as §1

Lamium purpureum [30] = assay: Herbicidal activity, postemergence test; settings: post; sprayed onto seedling plants, 800 g of active material per hectare; evaluated 2 weeks after treatment
Summary of the method: as §1

Setaria viridis [31] = assay: Herbicidal activity, postemergence test; settings: post; sprayed onto seedling plants, 800 g of active material per hectare; evaluated 2 weeks after treatment
Summary of the method: as §1

Stellaria media [32] = assay: Herbicidal activity, postemergence test; settings: post; sprayed onto seedling plants, 800 g of active material per hectare; evaluated 2 weeks after treatment
Summary of the method: as §1

Triticum aestivum [33] = assay: Herbicidal activity, postemergence test; settings: post; sprayed onto seedling plants, 800 g of active material per hectare; evaluated 2 weeks after treatment
Summary of the method: as §1

Veronica persica [34] = assay: Herbicidal activity, postemergence test; settings: post; sprayed onto seedling plants, 800 g of active material per hectare; evaluated 2 weeks after treatment
Summary of the method: as §1

Viola arvensis [35] = assay: Herbicidal activity, postemergence test; settings: post; sprayed onto seedling plants, 800 g of active material per hectare; evaluated 2 weeks after treatment
Summary of the method: as §1

Zea mays [36] = assay: Herbicidal activity, postemergence test; settings: post; sprayed onto seedling plants, 800 g of active material per hectare; evaluated 2 weeks after treatment
Summary of the method: as §1

| Compound | ABUTH control rating (0-9) (Abutilon theophrasti [1]) | ALOMY control rating (0-9) (Alopecurus myosuroides [2]) | AMARE control rating (0-9) (Amaranthus retroflexus [3]) | AMBEL control rating (0-9) (Ambrosia artemisifolia [4]) | ECHCG control rating (0-9) (Echinochloa crus-galli [5]) | GALAP control rating (0-9) (Galium aparine [6]) | GLXMA control rating (0-9) (Glycine max [7]) | GOSHI control rating (0-9) (Gossypium hirsutum [8]) | HELAN control rating (0-9) (Helianthus annuus [9]) | HORVW control rating (0-9) (Hordeum vulgare [10]) | IPOHE control rating (0-9) (Ipomoea hederacea [11]) | LAMPU control rating (0-9) (Lamium purpureum [12]) | SETVI control rating (0-9) (Setaria viridis [13]) | TRZAW control rating (0-9) (Triticum aestivum [15]) | VERPE control rating (0-9) (Veronica persica [16]) | VIOAR control rating (0-9) (Viola arvensis [17]) | ZEAMX control rating (0-9) (Zea mays [18]) | ABUTH control rating (0-9) (Abutilon theophrasti [19]) | ALOMY control rating (0-9) (Alopecurus myosuroides [20]) | AMARE control rating (0-9) (Amaranthus retroflexus [21]) | also measured |
| --- | --- | --- | --- | --- | --- | --- | --- | --- | --- | --- | --- | --- | --- | --- | --- | --- | --- | --- | --- | --- | --- |
| CC(NC(=O)c1nnc(C(C)(C)C)o1)c1cccs1 (racemic) [Example 5] | 7 (good herbicidal effect) | 4 (injury) | 5 (definite injury) | 1 (trace effect) | 6 (herbicidal effect) | 0 (no effect) | 0 (no effect) | 0 (no effect) | 0 (no effect) | 0 (no effect) | 0 (no effect) | 2 (slight effect) | 8 (approaching complete kill) | 0 (no effect) | 8 (approaching complete kill) | 6 (herbicidal effect) | 0 (no effect) | 8 (approaching complete kill) | 3 (moderate effect) | 5 (definite injury) | STEME control rating (0-9) (Stellaria media [14]): 8 (approaching complete kill); AMBEL control rating (0-9) (Ambrosia artemisifolia [22]): 9 (complete kill); ECHCG control rating (0-9) (Echinochloa crus-galli [23]): 4 (injury); GALAP control rating (0-9) (Galium aparine [24]): 5 (definite injury); GLXMA control rating (0-9) (Glycine max [25]): 8 (approaching complete kill); GOSHI control rating (0-9) (Gossypium hirsutum [26]): 9 (complete kill); HELAN control rating (0-9) (Helianthus annuus [27]): 8 (approaching complete kill); HORVW control rating (0-9) (Hordeum vulgare [28]): 4 (injury); IPOHE control rating (0-9) (Ipomoea hederacea [29]): 6 (herbicidal effect); LAMPU control rating (0-9) (Lamium purpureum [30]): 1 (trace effect); SETVI control rating (0-9) (Setaria viridis [31]): 6 (herbicidal effect); STEME control rating (0-9) (Stellaria media [32]): 8 (approaching complete kill); TRZAW control rating (0-9) (Triticum aestivum [33]): 4 (injury); VERPE control rating (0-9) (Veronica persica [34]): 9 (complete kill); VIOAR control rating (0-9) (Viola arvensis [35]): 7 (good herbicidal effect); ZEAMX control rating (0-9) (Zea mays [36]): 4 (injury) |
| CC(NC(=O)c1nnc(-c2ccccc2)o1)c1cccs1 (racemic) [Example 1] | 0 (no effect) | 0 (no effect) | 0 (no effect) | 0 (no effect) | 0 (no effect) | 0 (no effect) | 0 (no effect) | 0 (no effect) | 0 (no effect) | 0 (no effect) | 5 (definite injury) | 7 (good herbicidal effect) | 4 (injury) | 0 (no effect) | 5 (definite injury) | 6 (herbicidal effect) | 0 (no effect) | 8 (approaching complete kill) | 2 (slight effect) | 9 (complete kill) | AMBEL control rating (0-9) (Ambrosia artemisifolia [22]): 8 (approaching complete kill); ECHCG control rating (0-9) (Echinochloa crus-galli [23]): 6 (herbicidal effect); GALAP control rating (0-9) (Galium aparine [24]): 6 (herbicidal effect); GLXMA control rating (0-9) (Glycine max [25]): 8 (approaching complete kill); GOSHI control rating (0-9) (Gossypium hirsutum [26]): 9 (complete kill); HELAN control rating (0-9) (Helianthus annuus [27]): 9 (complete kill); HORVW control rating (0-9) (Hordeum vulgare [28]): 5 (definite injury); IPOHE control rating (0-9) (Ipomoea hederacea [29]): 5 (definite injury); LAMPU control rating (0-9) (Lamium purpureum [30]): 4 (injury); SETVI control rating (0-9) (Setaria viridis [31]): 9 (complete kill); STEME control rating (0-9) (Stellaria media [32]): 9 (complete kill); TRZAW control rating (0-9) (Triticum aestivum [33]): 2 (slight effect); VERPE control rating (0-9) (Veronica persica [34]): 9 (complete kill); VIOAR control rating (0-9) (Viola arvensis [35]): 9 (complete kill); ZEAMX control rating (0-9) (Zea mays [36]): 3 (moderate effect) |
| C[C@H](NC(=O)c1nnc(-c2ccccc2)o1)c1ccccc1 [Example 4] | 1 (trace effect) | 0 (no effect) | 8 (approaching complete kill) | 0 (no effect) | 4 (injury) | 0 (no effect) | 0 (no effect) | 0 (no effect) | 0 (no effect) | 0 (no effect) | 0 (no effect) | 3 (moderate effect) | 4 (injury) | 0 (no effect) | 6 (herbicidal effect) | 6 (herbicidal effect) | 1 (trace effect) | 9 (complete kill) | 4 (injury) | 9 (complete kill) | STEME control rating (0-9) (Stellaria media [14]): 6 (herbicidal effect); AMBEL control rating (0-9) (Ambrosia artemisifolia [22]): 9 (complete kill); ECHCG control rating (0-9) (Echinochloa crus-galli [23]): 5 (definite injury); GALAP control rating (0-9) (Galium aparine [24]): 8 (approaching complete kill); GLXMA control rating (0-9) (Glycine max [25]): 8 (approaching complete kill); GOSHI control rating (0-9) (Gossypium hirsutum [26]): 9 (complete kill); HELAN control rating (0-9) (Helianthus annuus [27]): 9 (complete kill); HORVW control rating (0-9) (Hordeum vulgare [28]): 5 (definite injury); IPOHE control rating (0-9) (Ipomoea hederacea [29]): 9 (complete kill); LAMPU control rating (0-9) (Lamium purpureum [30]): 6 (herbicidal effect); SETVI control rating (0-9) (Setaria viridis [31]): 8 (approaching complete kill); STEME control rating (0-9) (Stellaria media [32]): 9 (complete kill); TRZAW control rating (0-9) (Triticum aestivum [33]): 4 (injury); VERPE control rating (0-9) (Veronica persica [34]): 9 (complete kill); VIOAR control rating (0-9) (Viola arvensis [35]): 7 (good herbicidal effect); ZEAMX control rating (0-9) (Zea mays [36]): 3 (moderate effect) |
